Results from US20090062369A1, “USE OF SECRETORY PHOSPHOLIPASE A2 (SPLA2) INHIBITORS TO DECREASE SPLA2 LEVELS” (priority 2007, published 2009).

System: serum sPLA2
Experiment: Effect of twice-a-day oral A-002 on serum sPLA2 levels in subjects with stable coronary artery disease (Example 6)
Assay type: in vivo, human
Method: The protocol for preparing standard curve, test, and quality control samples for use in the assay disclosed herein is set forth in Example 5. Samples are prepared according to this protocol, then loaded in duplicate onto a plate (Cayman catalog no. 485002 or equivalent) that has been pre-coated with a monoclonal sPLA2 antibody (“capture antibody”) that specifically binds sPLA2. In certain embodiments, the capture antibody may interact with a specific form of sPLA2, such as for example sPLA2 type IIA.
sPLA2 acetylcholinesterase:Fab′ conjugate (AChE:Fab′) (“conjugate”) (Cayman catalog no. 485000 or equivalent) is reconstituted in EIA buffer (Cayman catalog no. 400060 or equivalent). Cayman EIA buffer is 1M phosphate, pH 7.0, 1% BSA, 4M NaCl, 10 mM EDTA, and 0.1% sodium azide. Reconstituted conjugate is added to each well of the plate. The conjugate binds a different sPLA2 epitope than the capture antibody, allowing the capture antibody and the conjugate to form a “sandwich” that is immobilized on the plate. Excess reagents are washed away, and the plate is covered and incubated overnight at 2-8° C.
Prior to development, the wells are washed five to six times with wash buffer (Cayman catalog no. 400062 or equivalent). To develop the plate, Ellman's Reagent (Cayman catalog no. 400050 or equivalent) is reconstituted in water and added to each well according to manufacturer instructions. The reconstituted Ellman's Reagent must be used the same day it is prepared because it is unstable. Ellman's Reagent contains an AChE substrate. Specifically, Ellman's Reagent contains acetylthiocholine and 5,5′-dithio-bis-(2-nitrobenzoic acid). Hydrolysis of acetylthiocholine by acetylcholinesterase produces thiocholine, which reacts with 5,5′-dithio-bis-(2-nitrobenzoic acid) to produce 5-thio-2-nitrobenzoic acid. 5-thio-2-nitrobenzoic acid has a strong absorbance at 412 nm. The intensity of absorbance at this wavelength is directly proportional to the concentration of bound conjugate, which is in turn is directly proportional to the concentration of sPLA2 present (Absorbance a [AChE:Fab′ conjugate] α [sPLA2]). During the development step, the plate is shaken, preferably in the dark. In certain embodiments the development time for the assay is 0.5 to 3 hours, preferably 1 to 1.5 hours. At the end of the development period, the high sPLA2 standards should have greater yellow color development than the zero standards. Absorbance of each well is measured at 400-420 nm using a micro-well plate reader. In certain embodiments, absorbance is measured at about 405 nm.
Absorbance readings for duplicate wells are averaged, and the relative standard deviation and % CV are calculated. Standard curve data are used to generate a four parameter curve, and quality control and test samples are measured against the appropriate standard curve (i.e., the standard curve with the same serum content). In order for a test to be considered valid, variation between duplicate wells should be no more than about 25%, and negative controls (blanks) for each standard curve should have a mean absorbance of less than about 0.3.
The method disclosed herein for measuring sPLA2 levels in serum was utilized to determine the effect of administering certain sPLA2 inhibitors on sPLA2 levels in 84 human subjects. The subjects included 24 subjects with diabetes, 32 subjects with metabolic syndrome, and 75 subjects receiving statin treatment. Subjects were administered the sPLA2 inhibitor A-002, a prodrug form of A-001, twice a day at varying dosages from 50 to 500 mg. The structures of A-002and A-001 are set forth below. At two weeks and four weeks after the first administration, sPLA2 levels were measured and compared to pre-administration baseline levels.
84 subjects with stable coronary artery disease were randomized to receive placebo or A-002 via oral administration twice a day over a four week administration period. […]

[1] = 50 mg, diabetes subgroup of ITT population
[2] = 50 mg, non-diabetes subgroup of ITT population
[3] = 50 mg, statin subgroup of ITT population
[4] = 100 mg, diabetes subgroup of ITT population
[5] = 100 mg, non-diabetes subgroup of ITT population
[6] = 100 mg, statin subgroup of ITT population

CCc1c(C(=O)C(N)=O)c2c(OCC(=O)OC)cccc2n1Cc1ccccc1 [A-002, [[3-(2-Amino-1,2-dioxoethyl)-2-ethyl-1-(phenylmethyl)-1H-indol-4-yl]oxy]acetic acid methyl ester]
sPLA2 Change from baseline at week 2, Mean (50 mg, ITT population): -2.74 ng/mL | sPLA2 Change from baseline at week 2, Median (50 mg, ITT population): -2.60 ng/mL | sPLA2 Change from baseline at week 2, Range (50 mg, ITT population): -5.30 to -0.60 ng/mL | sPLA2 Change from baseline at week 4, Mean (50 mg, ITT population): -2.50 ng/mL | sPLA2 Change from baseline at week 4, Median (50 mg, ITT population): -2.15 ng/mL | sPLA2 Change from baseline at week 4, Range (50 mg, ITT population): -6.40 to -0.60 ng/mL | sPLA2 level, Baseline, Mean (50 mg, ITT population): 3.24 ng/mL | sPLA2 level, Baseline, Median (50 mg, ITT population): 2.65 ng/mL | sPLA2 level, Baseline, Range (50 mg, ITT population): 0.80 to 8.80 ng/mL | sPLA2 level, Week 2, Mean (50 mg, ITT population): 0.89 ng/mL | sPLA2 level, Week 2, Median (50 mg, ITT population): 0.45 ng/mL | sPLA2 level, Week 2, Range (50 mg, ITT population): 0.20 to 4.00 ng/mL | sPLA2 level, Week 4, Mean (50 mg, ITT population): 0.85 ng/mL | sPLA2 level, Week 4, Median (50 mg, ITT population): 0.70 ng/mL | sPLA2 level, Week 4, Range (50 mg, ITT population): 0.10 to 2.40 ng/mL | sPLA2 Change from baseline at week 2, Mean [1]: -2.05 ng/mL | sPLA2 Change from baseline at week 2, Median [1]: -2.45 ng/mL | sPLA2 Change from baseline at week 2, Range [1]: -2.70 to -0.60 ng/mL | sPLA2 Change from baseline at week 4, Mean [1]: -1.76 ng/mL | sPLA2 Change from baseline at week 4, Median [1]: -1.50 ng/mL | sPLA2 Change from baseline at week 4, Range [1]: -3.20 to -0.60 ng/mL | sPLA2 level, Baseline, Mean [1]: 2.45 ng/mL | sPLA2 level, Baseline, Median [1]: 2.65 ng/mL | sPLA2 level, Baseline, Range [1]: 0.80 to 3.80 ng/mL | sPLA2 level, Week 2, Mean [1]: 0.55 ng/mL | sPLA2 level, Week 2, Median [1]: 0.45 ng/mL | sPLA2 level, Week 2, Range [1]: 0.20 to 1.10 ng/mL | sPLA2 level, Week 4, Mean [1]: 0.66 ng/mL | sPLA2 level, Week 4, Median [1]: 0.60 ng/mL | sPLA2 level, Week 4, Range [1]: 0.20 to 1.20 ng/mL | sPLA2 Change from baseline at week 2, Mean [2]: -3.09 ng/mL | sPLA2 Change from baseline at week 2, Median [2]: -3.05 ng/mL | sPLA2 Change from baseline at week 2, Range [2]: -5.30 to -0.70 ng/mL | sPLA2 Change from baseline at week 4, Mean [2]: -3.03 ng/mL | sPLA2 Change from baseline at week 4, Median [2]: -2.80 ng/mL | sPLA2 Change from baseline at week 4, Range [2]: -6.40 to -0.80 ng/mL | sPLA2 level, Baseline, Mean [2]: 3.72 ng/mL | sPLA2 level, Baseline, Median [2]: 3.20 ng/mL | sPLA2 level, Baseline, Range [2]: 1.30 to 8.80 ng/mL | sPLA2 level, Week 2, Mean [2]: 1.06 ng/mL | sPLA2 level, Week 2, Median [2]: 0.06 ng/mL | sPLA2 level, Week 2, Range [2]: 0.20 to 4.00 ng/mL | sPLA2 level, Week 4, Mean [2]: 0.96 ng/mL | sPLA2 level, Week 4, Median [2]: 0.75 ng/mL | sPLA2 level, Week 4, Range [2]: 0.10 to 2.40 ng/mL | sPLA2 Change from baseline at week 2, Mean [3]: -2.74 ng/mL | sPLA2 Change from baseline at week 2, Median [3]: -2.60 ng/mL | sPLA2 Change from baseline at week 2, Range [3]: -5.30 to -0.60 ng/mL | sPLA2 Change from baseline at week 4, Mean [3]: -2.50 ng/mL | sPLA2 Change from baseline at week 4, Median [3]: -2.15 ng/mL | sPLA2 Change from baseline at week 4, Range [3]: -6.40 to -0.60 ng/mL | sPLA2 level, Baseline, Mean [3]: 3.34 ng/mL | sPLA2 level, Baseline, Median [3]: 2.70 ng/mL | sPLA2 level, Baseline, Range [3]: 0.80 to 8.80 ng/mL | sPLA2 level, Week 2, Mean [3]: 0.89 ng/mL | sPLA2 level, Week 2, Median [3]: 0.45 ng/mL | sPLA2 level, Week 2, Range [3]: 0.20 to 4.00 ng/mL | sPLA2 level, Week 4, Mean [3]: 0.85 ng/mL | sPLA2 level, Week 4, Median [3]: 0.70 ng/mL | sPLA2 level, Week 4, Range [3]: 0.10 to 2.40 ng/mL | sPLA2 Change from baseline at week 2, Mean (100 mg, ITT population): -1.81 ng/mL | sPLA2 Change from baseline at week 2, Median (100 mg, ITT population): -1.85 ng/mL | sPLA2 Change from baseline at week 2, Range (100 mg, ITT population): −3.70 to +2.85 ng/ml | sPLA2 Change from baseline at week 4, Mean (100 mg, ITT population): -2.55 ng/mL | sPLA2 Change from baseline at week 4, Median (100 mg, ITT population): -2.50 ng/mL | sPLA2 Change from baseline at week 4, Range (100 mg, ITT population): -5.70 to 0.00 ng/mL | sPLA2 level, Baseline, Mean (100 mg, ITT population): 2.86 ng/mL | sPLA2 level, Baseline, Median (100 mg, ITT population): 2.95 ng/mL | sPLA2 level, Baseline, Range (100 mg, ITT population): 0.05 to 6.00 ng/mL | sPLA2 level, Week 2, Mean (100 mg, ITT population): 0.68 ng/mL | sPLA2 level, Week 2, Median (100 mg, ITT population): 0.45 ng/mL | sPLA2 level, Week 2, Range (100 mg, ITT population): 0.05 to 2.90 ng/mL | sPLA2 level, Week 4, Mean (100 mg, ITT population): 0.49 ng/mL | sPLA2 level, Week 4, Median (100 mg, ITT population): 0.50 ng/mL | sPLA2 level, Week 4, Range (100 mg, ITT population): 0.05 to 1.10 ng/mL | sPLA2 Change from baseline at week 2, Mean [4]: -1.11 ng/mL | sPLA2 Change from baseline at week 2, Median [4]: -1.80 ng/mL | sPLA2 Change from baseline at week 2, Range [4]: −3.00 to +2.85 ng/ml | sPLA2 Change from baseline at week 4, Mean [4]: -2.30 ng/mL | sPLA2 Change from baseline at week 4, Median [4]: -1.80 ng/mL | sPLA2 Change from baseline at week 4, Range [4]: -5.70 to 0.00 ng/mL | sPLA2 level, Baseline, Mean [4]: 2.78 ng/mL | sPLA2 level, Baseline, Median [4]: 2.50 ng/mL | sPLA2 level, Baseline, Range [4]: 0.05 to 6.00 ng/mL | sPLA2 level, Week 2, Mean [4]: 1.02 ng/mL | sPLA2 level, Week 2, Median [4]: 0.50 ng/mL | sPLA2 level, Week 2, Range [4]: 0.40 to 2.90 ng/mL | sPLA2 level, Week 4, Mean [4]: 0.48 ng/mL | sPLA2 level, Week 4, Median [4]: 0.40 ng/mL | sPLA2 level, Week 4, Range [4]: 0.05 to 1.10 ng/mL | sPLA2 Change from baseline at week 2, Mean [5]: -2.21 ng/mL | sPLA2 Change from baseline at week 2, Median [5]: -2.40 ng/mL | sPLA2 Change from baseline at week 2, Range [5]: -3.70 to -0.40 ng/mL | sPLA2 Change from baseline at week 4, Mean [5]: -2.76 ng/mL | sPLA2 Change from baseline at week 4, Median [5]: -2.60 ng/mL | sPLA2 Change from baseline at week 4, Range [5]: -4.40 to -0.90 ng/mL | sPLA2 level, Baseline, Mean [5]: 2.91 ng/mL | sPLA2 level, Baseline, Median [5]: 3.20 ng/mL | sPLA2 level, Baseline, Range [5]: 1.00 to 4.90 ng/mL | sPLA2 level, Week 2, Mean [5]: 0.48 ng/mL | sPLA2 level, Week 2, Median [5]: 0.30 ng/mL | sPLA2 level, Week 2, Range [5]: 0.05 to 1.20 ng/mL | sPLA2 level, Week 4, Mean [5]: 0.51 ng/mL | sPLA2 level, Week 4, Median [5]: 0.60 ng/mL | sPLA2 level, Week 4, Range [5]: 0.05 to 1.00 ng/mL | sPLA2 Change from baseline at week 2, Mean [6]: -1.81 ng/mL | sPLA2 Change from baseline at week 2, Median [6]: -1.80 ng/mL | sPLA2 Change from baseline at week 2, Range [6]: −3.70 to +2.85 ng/ml | sPLA2 Change from baseline at week 4, Mean [6]: -2.46 ng/mL | sPLA2 Change from baseline at week 4, Median [6]: -2.50 ng/mL
